Key:
Experiment in all cases: Kinase panel (140 human kinases)
Type in all cases: biochemical
TESK1 = TESK1 (Homo sapiens, UniProt Q15569)
In short: (§1)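 Duplicate radiometric filter-binding measurements with [γ-^33P]ATP gave percent residual activity, mean and SD. Tested concentrations: 0.1 μM and, for BAY-3827, 1 μM. ATP set per kinase to 5, 20 or 50 μM, not above Km.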

PKCz = PKCz (Homo sapiens, UniProt Q05513)
In short: as §1

CAMKKb = CAMKKb (Homo sapiens, UniProt Q96RR4)
In short: as §1

PAK6 = PAK6 (Homo sapiens, UniProt Q9NQU5)
PAK6, sequence (Q9NQU5 whole entry): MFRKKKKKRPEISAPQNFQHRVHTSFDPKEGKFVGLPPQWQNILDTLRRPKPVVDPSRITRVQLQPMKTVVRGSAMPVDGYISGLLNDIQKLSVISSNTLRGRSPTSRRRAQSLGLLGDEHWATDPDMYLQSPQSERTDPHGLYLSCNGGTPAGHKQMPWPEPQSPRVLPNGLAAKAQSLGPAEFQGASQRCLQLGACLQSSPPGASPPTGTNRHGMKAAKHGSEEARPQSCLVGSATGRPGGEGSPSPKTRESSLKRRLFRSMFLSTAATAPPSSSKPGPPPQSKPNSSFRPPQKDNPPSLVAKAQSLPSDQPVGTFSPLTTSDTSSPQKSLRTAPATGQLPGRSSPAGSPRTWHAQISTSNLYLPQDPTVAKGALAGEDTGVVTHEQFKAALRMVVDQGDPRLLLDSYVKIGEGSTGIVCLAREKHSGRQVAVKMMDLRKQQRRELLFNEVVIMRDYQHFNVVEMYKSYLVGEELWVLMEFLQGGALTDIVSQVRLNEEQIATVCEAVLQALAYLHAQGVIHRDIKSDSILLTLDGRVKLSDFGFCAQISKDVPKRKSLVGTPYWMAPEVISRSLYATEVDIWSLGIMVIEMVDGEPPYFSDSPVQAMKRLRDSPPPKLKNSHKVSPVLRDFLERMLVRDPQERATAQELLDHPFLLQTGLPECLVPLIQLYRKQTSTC
In short: as §1

TIE2 = TIE2 (Homo sapiens, UniProt Q02763)
In short: as §1

ERK2 = ERK2 (Homo sapiens, UniProt P28482)
In short: as §1

ZAP70 = ZAP70 (Homo sapiens, UniProt P43403)
In short: as §1

PKCa = PKCa (Homo sapiens, UniProt P17252)
In short: as §1

TBK1 = molecular target: T1, TBK1 (Homo sapiens, UniProt Q9UHD2)
T1 sequence (Q9UHD2 1-729): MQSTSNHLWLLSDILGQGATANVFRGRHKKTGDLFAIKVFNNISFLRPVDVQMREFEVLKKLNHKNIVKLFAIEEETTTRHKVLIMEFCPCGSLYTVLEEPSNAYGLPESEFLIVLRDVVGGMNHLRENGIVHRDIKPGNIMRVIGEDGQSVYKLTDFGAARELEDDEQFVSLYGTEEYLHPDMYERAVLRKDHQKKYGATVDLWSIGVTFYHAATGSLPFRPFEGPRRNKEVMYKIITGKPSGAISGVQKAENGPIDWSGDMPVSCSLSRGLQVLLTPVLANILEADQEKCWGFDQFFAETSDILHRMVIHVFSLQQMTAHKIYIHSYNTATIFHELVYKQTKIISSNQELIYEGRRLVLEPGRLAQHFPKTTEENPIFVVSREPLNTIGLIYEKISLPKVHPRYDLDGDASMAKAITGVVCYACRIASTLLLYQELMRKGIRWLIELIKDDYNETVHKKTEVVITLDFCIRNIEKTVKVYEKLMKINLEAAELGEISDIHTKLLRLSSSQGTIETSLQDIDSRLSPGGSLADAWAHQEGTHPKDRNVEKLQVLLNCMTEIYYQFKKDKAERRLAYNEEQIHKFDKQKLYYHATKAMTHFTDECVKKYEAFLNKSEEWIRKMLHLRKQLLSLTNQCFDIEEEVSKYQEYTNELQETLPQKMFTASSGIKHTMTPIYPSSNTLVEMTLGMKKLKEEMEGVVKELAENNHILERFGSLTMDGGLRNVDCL
In short: as §1

BRSK1 = BRSK1 (Homo sapiens, UniProt Q8TDC3)
BRSK1, sequence (Q8TDC3 whole entry): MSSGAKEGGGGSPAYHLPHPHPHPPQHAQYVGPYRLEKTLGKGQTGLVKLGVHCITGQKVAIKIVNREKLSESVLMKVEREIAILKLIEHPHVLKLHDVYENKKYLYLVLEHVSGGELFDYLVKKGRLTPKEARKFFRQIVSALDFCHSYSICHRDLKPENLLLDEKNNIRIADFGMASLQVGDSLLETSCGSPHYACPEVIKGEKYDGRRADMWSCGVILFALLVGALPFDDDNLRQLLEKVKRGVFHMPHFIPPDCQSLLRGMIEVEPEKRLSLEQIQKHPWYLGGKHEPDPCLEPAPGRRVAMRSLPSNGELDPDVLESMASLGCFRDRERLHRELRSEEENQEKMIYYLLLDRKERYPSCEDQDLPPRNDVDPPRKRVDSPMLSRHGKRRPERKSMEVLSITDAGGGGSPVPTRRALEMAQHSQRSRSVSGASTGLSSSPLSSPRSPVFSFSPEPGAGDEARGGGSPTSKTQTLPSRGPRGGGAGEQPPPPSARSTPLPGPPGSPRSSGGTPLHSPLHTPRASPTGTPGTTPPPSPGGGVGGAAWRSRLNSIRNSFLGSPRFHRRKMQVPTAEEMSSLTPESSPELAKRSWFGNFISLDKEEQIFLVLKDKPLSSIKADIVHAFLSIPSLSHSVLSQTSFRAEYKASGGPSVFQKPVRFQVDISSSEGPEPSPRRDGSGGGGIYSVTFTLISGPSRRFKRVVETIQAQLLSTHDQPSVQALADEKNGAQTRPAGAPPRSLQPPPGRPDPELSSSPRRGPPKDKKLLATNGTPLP
In short: as §1

PKBa = PKBa (Homo sapiens, UniProt P31749)
In short: as §1

MARK4 = MARK4 (Homo sapiens, UniProt Q96L34)
In short: as §1

IGF-1R = IGF-1R (Homo sapiens, UniProt P08069)
In short: as §1

NEK2a = NEK2a (Homo sapiens, UniProt P51955)
NEK2a, sequence (P51955 whole entry): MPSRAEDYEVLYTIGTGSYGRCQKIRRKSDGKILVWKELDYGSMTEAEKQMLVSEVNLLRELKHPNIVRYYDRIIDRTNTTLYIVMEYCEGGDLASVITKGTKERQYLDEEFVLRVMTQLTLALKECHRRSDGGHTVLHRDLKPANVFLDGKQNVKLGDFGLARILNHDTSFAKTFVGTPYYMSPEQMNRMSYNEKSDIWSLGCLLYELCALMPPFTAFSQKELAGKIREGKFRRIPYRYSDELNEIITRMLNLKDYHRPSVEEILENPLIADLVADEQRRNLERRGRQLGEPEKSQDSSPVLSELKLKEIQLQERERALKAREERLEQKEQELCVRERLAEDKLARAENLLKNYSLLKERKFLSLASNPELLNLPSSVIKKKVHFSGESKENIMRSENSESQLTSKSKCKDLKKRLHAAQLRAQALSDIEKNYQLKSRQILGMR
In short: as §1

ABL = ABL (Homo sapiens, UniProt P00519)
ABL, sequence (P00519 whole entry): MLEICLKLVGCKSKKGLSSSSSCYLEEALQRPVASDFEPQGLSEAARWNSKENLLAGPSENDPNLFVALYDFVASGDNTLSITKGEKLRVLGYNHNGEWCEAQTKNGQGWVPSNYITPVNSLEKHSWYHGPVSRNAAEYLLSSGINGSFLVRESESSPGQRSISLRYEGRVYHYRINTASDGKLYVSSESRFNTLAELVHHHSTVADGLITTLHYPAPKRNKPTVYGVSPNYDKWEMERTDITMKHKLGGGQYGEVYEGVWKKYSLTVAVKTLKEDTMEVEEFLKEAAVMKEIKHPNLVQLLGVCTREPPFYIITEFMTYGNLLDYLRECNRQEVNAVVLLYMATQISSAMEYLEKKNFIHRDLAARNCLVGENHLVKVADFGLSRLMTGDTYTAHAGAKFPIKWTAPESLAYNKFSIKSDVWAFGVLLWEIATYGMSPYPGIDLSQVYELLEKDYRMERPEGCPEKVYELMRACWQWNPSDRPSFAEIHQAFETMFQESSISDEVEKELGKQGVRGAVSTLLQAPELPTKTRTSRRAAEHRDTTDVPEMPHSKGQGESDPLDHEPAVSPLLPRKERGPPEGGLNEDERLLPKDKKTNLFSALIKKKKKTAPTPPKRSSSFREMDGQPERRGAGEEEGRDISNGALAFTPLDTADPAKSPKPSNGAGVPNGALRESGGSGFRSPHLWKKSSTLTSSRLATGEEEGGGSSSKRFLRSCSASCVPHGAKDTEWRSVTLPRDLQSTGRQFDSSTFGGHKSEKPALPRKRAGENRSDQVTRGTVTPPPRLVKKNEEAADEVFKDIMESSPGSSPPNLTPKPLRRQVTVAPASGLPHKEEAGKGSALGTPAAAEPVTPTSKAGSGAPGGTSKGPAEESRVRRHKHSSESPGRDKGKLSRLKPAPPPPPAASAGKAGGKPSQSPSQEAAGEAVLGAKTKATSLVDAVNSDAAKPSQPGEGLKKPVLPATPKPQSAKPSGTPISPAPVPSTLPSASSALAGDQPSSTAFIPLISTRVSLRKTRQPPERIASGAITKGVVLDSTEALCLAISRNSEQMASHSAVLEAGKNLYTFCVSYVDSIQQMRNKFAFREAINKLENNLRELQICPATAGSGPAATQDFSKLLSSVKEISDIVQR
In short: as §1

EPH-B4 = EPH-B4 (Homo sapiens, UniProt P54760)
In short: as §1

MAPKAP-K2 = MAPKAP-K2 (Homo sapiens, UniProt P49137)
MAPKAP-K2, sequence (P49137 whole entry): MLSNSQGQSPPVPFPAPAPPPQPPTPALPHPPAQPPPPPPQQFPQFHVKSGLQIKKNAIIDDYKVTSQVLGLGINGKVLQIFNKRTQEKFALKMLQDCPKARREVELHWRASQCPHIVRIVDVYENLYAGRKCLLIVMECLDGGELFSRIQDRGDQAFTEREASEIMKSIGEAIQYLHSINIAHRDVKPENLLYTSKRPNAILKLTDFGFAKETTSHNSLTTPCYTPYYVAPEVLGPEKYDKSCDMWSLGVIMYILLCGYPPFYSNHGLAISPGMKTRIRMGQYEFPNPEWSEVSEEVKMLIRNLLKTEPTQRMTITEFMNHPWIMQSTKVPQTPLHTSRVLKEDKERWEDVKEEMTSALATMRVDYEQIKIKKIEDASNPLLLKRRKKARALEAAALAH
In short: as §1

MKK6 = MKK6 (Homo sapiens, UniProt P52564)
MKK6, sequence (P52564 whole entry): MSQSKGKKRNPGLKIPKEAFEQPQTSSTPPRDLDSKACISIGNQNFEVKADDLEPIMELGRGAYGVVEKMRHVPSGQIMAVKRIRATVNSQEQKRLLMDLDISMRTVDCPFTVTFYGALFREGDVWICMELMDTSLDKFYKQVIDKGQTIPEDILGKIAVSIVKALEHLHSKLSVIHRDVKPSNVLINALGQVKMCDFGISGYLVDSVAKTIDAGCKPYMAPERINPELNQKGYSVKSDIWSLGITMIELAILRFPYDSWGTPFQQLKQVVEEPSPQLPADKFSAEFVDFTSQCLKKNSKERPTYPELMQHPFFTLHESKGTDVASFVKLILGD
In short: as §1

MNK2 = MNK2 (Homo sapiens, UniProt Q9HBH9)
MNK2, sequence (Q9HBH9 whole entry): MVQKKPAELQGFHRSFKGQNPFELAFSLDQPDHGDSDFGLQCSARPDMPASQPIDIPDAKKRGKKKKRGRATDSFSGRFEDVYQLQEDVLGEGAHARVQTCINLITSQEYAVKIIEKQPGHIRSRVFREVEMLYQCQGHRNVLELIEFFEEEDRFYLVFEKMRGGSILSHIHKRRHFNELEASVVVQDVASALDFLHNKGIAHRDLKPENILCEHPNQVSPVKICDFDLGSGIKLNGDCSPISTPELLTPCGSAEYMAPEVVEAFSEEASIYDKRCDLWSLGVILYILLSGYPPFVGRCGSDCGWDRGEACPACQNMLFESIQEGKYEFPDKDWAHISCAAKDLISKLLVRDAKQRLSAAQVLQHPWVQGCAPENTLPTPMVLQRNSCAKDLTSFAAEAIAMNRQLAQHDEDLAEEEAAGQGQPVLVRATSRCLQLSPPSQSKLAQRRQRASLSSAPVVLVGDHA
In short: as §1

EPH-B3 = EPH-B3 (Homo sapiens, UniProt P54753)
In short: as §1

STK33 = STK33 (Homo sapiens, UniProt Q9BYT3)
In short: as §1

ULK2 = ULK2 (Homo sapiens, UniProt Q8IYT8)
In short: as §1

SYK = SYK (Homo sapiens, UniProt P43405)
In short: as §1

TAK1 = molecular target: T2, TAK1 (Homo sapiens, UniProt O43318)
T2 sequence (O43318 1-303 limits assumed): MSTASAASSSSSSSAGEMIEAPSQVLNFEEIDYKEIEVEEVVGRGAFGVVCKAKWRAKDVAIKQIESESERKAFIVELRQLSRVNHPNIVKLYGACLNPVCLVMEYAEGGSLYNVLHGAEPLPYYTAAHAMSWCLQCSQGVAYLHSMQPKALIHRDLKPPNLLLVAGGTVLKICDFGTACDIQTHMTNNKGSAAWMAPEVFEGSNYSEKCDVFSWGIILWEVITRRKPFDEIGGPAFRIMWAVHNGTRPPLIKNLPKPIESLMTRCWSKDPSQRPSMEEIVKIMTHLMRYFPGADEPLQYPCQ
In short: as §1

HER4 = HER4 (Homo sapiens, UniProt Q15303)
In short: as §1

GCK = GCK (Homo sapiens, UniProt Q12851)
In short: as §1

p38b MAPK = p38b MAPK (Homo sapiens, UniProt Q15759)
In short: as §1

| SMILES | remaining activity at 0.1 µM (TESK1) | remaining activity at 0.1 µM (PKCz) | remaining activity at 0.1 µM (CAMKKb) | remaining activity at 0.1 µM (PAK6) | remaining activity at 0.1 µM (TIE2) | remaining activity at 0.1 µM (ERK2) | remaining activity at 0.1 µM (ZAP70) | remaining activity at 0.1 µM (PKCa) | remaining activity at 0.1 µM (TBK1) | remaining activity at 0.1 µM (BRSK1) | remaining activity at 0.1 µM (PKBa) | remaining activity at 0.1 µM (MARK4) | remaining activity at 0.1 µM (IGF-1R) | remaining activity at 0.1 µM (NEK2a) | remaining activity at 0.1 µM (ABL) | remaining activity at 0.1 µM (EPH-B4) | remaining activity at 0.1 µM (MAPKAP-K2) | remaining activity at 0.1 µM (MKK6) | remaining activity at 0.1 µM (MNK2) | remaining activity at 0.1 µM (EPH-B3) | also measured |
| --- | --- | --- | --- | --- | --- | --- | --- | --- | --- | --- | --- | --- | --- | --- | --- | --- | --- | --- | --- | --- | --- |
| CC1=C(C#N)C(c2ccc3c(c2)c(NC(=O)c2ccccc2C)nn3C)C(C#N)=C(C)N1 [BAY-974, N-[5-(3,5-dicyano-2,6-dimethyl-1,4-dihydropyridin-4-yl)-1-methylindazol-3-yl]-2-methylbenzamide] | 88% | 103% | 107% | 102% | 103% | 110% | 94% | 110% | 91% | 96% | 95% | 96% | 147% | 121% | 59% | 116% | 84% | 94% | 98% | 119% | remaining activity at 0.1 µM (STK33): 82%; remaining activity at 0.1 µM (ULK2): 60%; inhibition at 0.1 µM (SYK): 55 to 90%; remaining activity at 0.1 µM (TAK1): 93%; remaining activity at 0.1 µM (HER4): 93%; remaining activity at 0.1 µM (GCK): 65%; remaining activity at 0.1 µM (p38b MAPK): 81% |
| CCc1ccccc1C(=O)Nc1n[nH]c2c(C)c(F)c(C3C(C#N)=C(C)N(C)C(C)=C3C#N)cc12 [BAY-3827, N-[5-(3,5-dicyano-1,2,6-trimethyl-4H-pyridin-4-yl)-6-fluoro-7-methyl-1H-indazol-3-yl]-2-ethylbenzamide] | 70% | 112% | 97% | 106% | 69% | 116% | 96% | 90% | ≤ 50% | 77% | 95% | 98% | 67% | 122% | 107% | 109% | 82% | 101% | 99% | 84% | inhibition at 0.1 µM (TBK1): ~60%; remaining activity at 1 µM (ABL; 1 μM, ABL1, cross-referenced with screen data of ref 37, read-out: activity remaining after treatment): ≥ 99%; remaining activity at 0.1 µM (STK33): 94%; remaining activity at 0.1 µM (ULK2): 96%; remaining activity at 0.1 µM (SYK): 91%; remaining activity at 0.1 µM (TAK1): 118%; remaining activity at 1 µM (TAK1; 1 μM, cross-referenced with screen data of ref 37, read-out: activity remaining after treatment): ≥ 99%; remaining activity at 0.1 µM (HER4): 135%; remaining activity at 0.1 µM (GCK): 105%; remaining activity at 0.1 µM (p38b MAPK): 55% |

Source: article PMC12372887, “Mechanism and cellular actions of the potent AMPK inhibitor BAY-3827” (Science Advances, 2025)
